Source: patent EP0382185A2, “Carbostyril derivatives” (OTSUKA PHARMACEUTICAL CO., LTD., priority 1989, dated 1990)

System: increase of diastolic pressure caused by the intravenous administration of Arg-vasopressin
Assay: Anti-vasopressor activity in vivo
Design: species or system male SD rat
Conditions: 0.05 h; pith rat; test compound intravenous; Arg-vasopressin (30 mU/kg) intravenously 3 minutes after the test compound; dose reducing the increase of diastolic pressure to 50 % of control

Molecule `COc1ccc(C(=O)N2CCC(N3C(=O)CCc4ccc(F)cc43)CC2)c(OC)c1` [Example 311, 7-Fluoro-1-[1-(2,4-dimethoxybenzoyl)-4-piperidinyl]-3,4-dihydrocarbostyril] has an ED50 of 0.3 mg/kg.
